Measured values as given in patent US20230085307A1, “PYRIDAZINONE COMPOUND AND HERBICIDE” (NISSAN CHEMICAL CORPORATION, priority 2019, published 2023).

Assays:
barnyard grass [1] = assay: Test Example 3: herbicidal effect by foliage application, Wagner pot (Table 18, symbol H); format: in vivo, barnyard grass (Echinochloa crus-galli)
How it was run: (§1)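 Plants were sown in alluvial soil held under 0.1–0.5 cm standing water and grown 14 days in a greenhouse at 25–30 °C. An emulsifiable formulation, water-diluted to the set dose, was then sprayed onto the foliage, and effects were scored three weeks later using previously defined criteria.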

Chinese sprangletop = assay: Test Example 3: herbicidal effect by foliage application, Wagner pot (Table 18, symbol D); format: in vivo, chinese sprangletop (Leptochloa chinensis)
How it was run: as §1

rice flat sedge = assay: Test Example 3: herbicidal effect by foliage application, Wagner pot (Table 18, symbol E); format: in vivo, rice flat sedge (Cyperus iria)
How it was run: as §1

southern crabgrass [2] = assay: Test Example 4: herbicidal effect by soil treatment (Table 19, symbol F); format: in vivo, southern crabgrass (Digitaria ciliaris)
How it was run: (§2)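 Three weeks of greenhouse growth at 25° C. to 30° C. followed a uniform surface spray of water-diluted emulsion at a predetermined herbicide amount. Seeds had been sown beforehand under about 1.5 cm of sterilized diluvial soil. Grading followed criteria set out in an earlier test.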

green foxtail [3] = assay: Test Example 4: herbicidal effect by soil treatment (Table 19, symbol G); format: in vivo, green foxtail (Setaria viridis)
How it was run: as §2

barnyard grass [4] = assay: Test Example 4: herbicidal effect by soil treatment (Table 19, symbol H); format: in vivo, barnyard grass (Echinochloa crus-galli)
How it was run: as §2

wild oat [5] = assay: Test Example 4: herbicidal effect by soil treatment (Table 19, symbol I); format: in vivo, wild oat (Avena fatua)
How it was run: as §2

blackgrass [6] = assay: Test Example 4: herbicidal effect by soil treatment (Table 19, symbol J); format: in vivo, blackgrass (Alopecurus myosuroides)
How it was run: as §2

Italian ryegrass [7] = assay: Test Example 4: herbicidal effect by soil treatment (Table 19, symbol K); format: in vivo, Italian ryegrass (Lolium multiflorum)
How it was run: as §2

windgrass [8] = assay: Test Example 4: herbicidal effect by soil treatment (Table 19, symbol L); format: in vivo, windgrass (Apera spica-venti)
How it was run: as §2

velvetleaf [9] = assay: Test Example 4: herbicidal effect by soil treatment (Table 19, symbol M); format: in vivo, velvetleaf (Abutilon theophrasti)
How it was run: as §2

redroot pigweed [10] = assay: Test Example 4: herbicidal effect by soil treatment (Table 19, symbol N); format: in vivo, redroot pigweed (Amaranthus retroflexus)
How it was run: as §2

lambsquarters [11] = assay: Test Example 4: herbicidal effect by soil treatment (Table 19, symbol O); format: in vivo, lambsquarters (Chenopodium album)
How it was run: as §2

chickweed [12] = assay: Test Example 4: herbicidal effect by soil treatment (Table 19, symbol P); format: in vivo, common chickweed (Stellaria media)
How it was run: as §2

persian speedwell [13] = assay: Test Example 4: herbicidal effect by soil treatment (Table 19, symbol R); format: in vivo, Persian speedwell (Veronica persica)
How it was run: as §2

southern crabgrass [14] = assay: Test Example 5: herbicidal effect by foliage application, plastic box (Table 20, symbol F); format: in vivo, southern crabgrass (Digitaria ciliaris)
How it was run: (§3)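 Plants sown in sterilized diluvial soil and grown 14 days in a greenhouse at 25° C to 30° C, then sprayed on the foliage with the compound's emulsion diluted in water to a predetermined herbicide amount. Injury to weeds and crops scored three weeks after application on a visual rating scale.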

green foxtail [15] = assay: Test Example 5: herbicidal effect by foliage application, plastic box (Table 20, symbol G); format: in vivo, green foxtail (Setaria viridis)
How it was run: as §3

barnyard grass [16] = assay: Test Example 5: herbicidal effect by foliage application, plastic box (Table 20, symbol H); format: in vivo, barnyard grass (Echinochloa crus-galli)
How it was run: as §3

wild oat [17] = assay: Test Example 5: herbicidal effect by foliage application, plastic box (Table 20, symbol I); format: in vivo, wild oat (Avena fatua)
How it was run: as §3

blackgrass [18] = assay: Test Example 5: herbicidal effect by foliage application, plastic box (Table 20, symbol J); format: in vivo, blackgrass (Alopecurus myosuroides)
How it was run: as §3

Italian ryegrass [19] = assay: Test Example 5: herbicidal effect by foliage application, plastic box (Table 20, symbol K); format: in vivo, Italian ryegrass (Lolium multiflorum)
How it was run: as §3

windgrass [20] = assay: Test Example 5: herbicidal effect by foliage application, plastic box (Table 20, symbol L); format: in vivo, windgrass (Apera spica-venti)
How it was run: as §3

velvetleaf [21] = assay: Test Example 5: herbicidal effect by foliage application, plastic box (Table 20, symbol M); format: in vivo, velvetleaf (Abutilon theophrasti)
How it was run: as §3

lambsquarters [22] = assay: Test Example 5: herbicidal effect by foliage application, plastic box (Table 20, symbol O); format: in vivo, lambsquarters (Chenopodium album)
How it was run: as §3

false cleavers = assay: Test Example 5: herbicidal effect by foliage application, plastic box (Table 20, symbol Q); format: in vivo, false cleavers (Galium spurium)
How it was run: as §3

persian speedwell [23] = assay: Test Example 5: herbicidal effect by foliage application, plastic box (Table 20, symbol R); format: in vivo, Persian speedwell (Veronica persica)
How it was run: as §3

redroot pigweed [24] = assay: Test Example 5: herbicidal effect by foliage application, plastic box (Table 20, symbol N); format: in vivo, redroot pigweed (Amaranthus retroflexus); details: 320 g/ha, foliage application after 14-day growth, evaluated three weeks after application
How it was run: as §3

chickweed [25] = assay: Test Example 5: herbicidal effect by foliage application, plastic box (Table 20, symbol P); format: in vivo, common chickweed (Stellaria media); details: 320 g/ha, foliage application after 14-day growth, evaluated three weeks after application
How it was run: as §3

[26] = foliage application, 294 g/ha, 3 weeks after application
[27] = 320 g/ha, foliage application after 14-day growth, evaluated three weeks after application
[28] = amount of applied herbicide 194 g/ha
[29] = foliage application, 194 g/ha, three weeks after application

SMILES: COc1ccccc1-c1sc2ccc(F)cc2c1-c1c(O)c(C)nn(C)c1=O [2-024]
- herbicidal effect on H (barnyard grass), rating 0-5 (barnyard grass [1]; 294 g/ha): 4 (Herbicidal rate of 70% or more and less than 90%)
- herbicidal effect on D (Chinese sprangletop), rating 0-5 (Chinese sprangletop; 294 g/ha): 3 (Herbicidal rate of 40% or more and less than 70%)
- herbicidal effect on E (rice flat sedge), rating 0-5 (rice flat sedge; 294 g/ha): 4 (Herbicidal rate of 70% or more and less than 90%)
- herbicidal effect rating, F: southern crabgrass (southern crabgrass [2]; 294 g/ha): 3 (Herbicidal rate of 40% or more and less than 70%)
- herbicidal effect rating, G: green foxtail (green foxtail [3]; 294 g/ha): 3 (Herbicidal rate of 40% or more and less than 70%)
- herbicidal effect rating, H: barnyard grass (barnyard grass [4]; 294 g/ha): 1 (Herbicidal rate of 5% or more and less than 20%)
- herbicidal effect rating, I: wild oat (wild oat [5]; 294 g/ha): 0 (Herbicidal rate of 5% or less (almost no effect))
- herbicidal effect rating, J: blackgrass (blackgrass [6]; 294 g/ha): 2 (Herbicidal rate of 20% or more and less than 40%)
- herbicidal effect rating, K: Italian ryegrass (Italian ryegrass [7]; 294 g/ha): 0 (Herbicidal rate of 5% or less (almost no effect))
- herbicidal effect rating, L: windgrass (windgrass [8]; 294 g/ha): 0 (Herbicidal rate of 5% or less (almost no effect))
- herbicidal effect rating, M: velvetleaf (velvetleaf [9]; 294 g/ha): 2 (Herbicidal rate of 20% or more and less than 40%)
- herbicidal effect rating, N: redroot pigweed (redroot pigweed [10]; 294 g/ha): 5 (Herbicidal rate of 90% or more (almost completely withered))
- herbicidal effect rating, O: lambsquarters (lambsquarters [11]; 294 g/ha): 5 (Herbicidal rate of 90% or more (almost completely withered))
- herbicidal effect rating, P: chickweed (chickweed [12]; 294 g/ha): 3 (Herbicidal rate of 40% or more and less than 70%)
- herbicidal effect rating, R: persian speedwell (persian speedwell [13]; 294 g/ha): 4 (Herbicidal rate of 70% or more and less than 90%)
- effect on southern crabgrass (F) (southern crabgrass [14]; [26]): 3 (Herbicidal rate of 40% or more and less than 70%)
- effect on green foxtail (G) (green foxtail [15]; [26]): 4 (Herbicidal rate of 70% or more and less than 90%)
- effect on barnyard grass (H) (barnyard grass [16]; [26]): 5 (Herbicidal rate of 90% or more (almost completely withered))
- effect on wild oat (I) (wild oat [17]; [26]): 4 (Herbicidal rate of 70% or more and less than 90%)
- effect on blackgrass (J) (blackgrass [18]; [26]): 5 (Herbicidal rate of 90% or more (almost completely withered))
- effect on Italian ryegrass (K) (Italian ryegrass [19]; [26]): 3 (Herbicidal rate of 40% or more and less than 70%)
- effect on windgrass (L) (windgrass [20]; [26]): 4 (Herbicidal rate of 70% or more and less than 90%)
- effect on velvetleaf (M) (velvetleaf [21]; [26]): 5 (Herbicidal rate of 90% or more (almost completely withered))
- effect on lambsquarters (O) (lambsquarters [22]; [26]): 5 (Herbicidal rate of 90% or more (almost completely withered))
- effect on false cleavers (Q) (false cleavers; [26]): 5 (Herbicidal rate of 90% or more (almost completely withered))
- effect on persian speedwell (R) (persian speedwell [23]; [26]): 5 (Herbicidal rate of 90% or more (almost completely withered))

SMILES: COc1ccccc1-c1sc2c(OC)cccc2c1-c1c(O)c(C)nn(C)c1=O [4-039]
- herbicidal effect on barnyard grass (H) (barnyard grass [1]; 320 g/ha): 4 (Herbicidal rate of 70% or more and less than 90%)
- herbicidal effect on Chinese sprangletop (D) (Chinese sprangletop; 320 g/ha): 3 (Herbicidal rate of 40% or more and less than 70%)
- herbicidal effect on rice flat sedge (E) (rice flat sedge; 320 g/ha): 3 (Herbicidal rate of 40% or more and less than 70%)
- herbicidal effect on F: southern crabgrass (evaluation grade 0-5) (southern crabgrass [14]; [27]): 3 (Herbicidal rate of 40% or more and less than 70%)
- herbicidal effect on G: green foxtail (evaluation grade 0-5) (green foxtail [15]; [27]): 4 (Herbicidal rate of 70% or more and less than 90%)
- herbicidal effect on H: barnyard grass (evaluation grade 0-5) (barnyard grass [16]; [27]): 3 (Herbicidal rate of 40% or more and less than 70%)
- herbicidal effect on I: wild oat (evaluation grade 0-5) (wild oat [17]; [27]): 3 (Herbicidal rate of 40% or more and less than 70%)
- herbicidal effect on J: blackgrass (evaluation grade 0-5) (blackgrass [18]; [27]): 2 (Herbicidal rate of 20% or more and less than 40%)
- herbicidal effect on K: Italian ryegrass (evaluation grade 0-5) (Italian ryegrass [19]; [27]): 0 (Herbicidal rate of 5% or less (almost no effect))
- herbicidal effect on L: windgrass (evaluation grade 0-5) (windgrass [20]; [27]): 3 (Herbicidal rate of 40% or more and less than 70%)
- herbicidal effect on M: velvetleaf (evaluation grade 0-5) (velvetleaf [21]; [27]): 4 (Herbicidal rate of 70% or more and less than 90%)
- herbicidal effect on N: redroot pigweed (evaluation grade 0-5) (redroot pigweed [24]): 3 (Herbicidal rate of 40% or more and less than 70%)
- herbicidal effect on O: lambsquarters (evaluation grade 0-5) (lambsquarters [22]; [27]): 2 (Herbicidal rate of 20% or more and less than 40%)
- herbicidal effect on P: chickweed (evaluation grade 0-5) (chickweed [25]): 2 (Herbicidal rate of 20% or more and less than 40%)
- herbicidal effect on Q: false cleavers (evaluation grade 0-5) (false cleavers; [27]): 3 (Herbicidal rate of 40% or more and less than 70%)
- herbicidal effect on R: persian speedwell (evaluation grade 0-5) (persian speedwell [23]; [27]): 3 (Herbicidal rate of 40% or more and less than 70%)

SMILES: Cc1ccc2oc(-c3ccc(F)cc3)c(-c3c(O)c(C)nn(C)c3=O)c2c1 [9-004]
- F: southern crabgrass, herbicidal effect grade (southern crabgrass [2]; [28]): 2 (Herbicidal rate of 20% or more and less than 40%)
- G: green foxtail, herbicidal effect grade (green foxtail [3]; [28]): 2 (Herbicidal rate of 20% or more and less than 40%)
- H: barnyard grass, herbicidal effect grade (barnyard grass [4]; [28]): 3 (Herbicidal rate of 40% or more and less than 70%)
- I: wild oat, herbicidal effect grade (wild oat [5]; [28]): 0 (Herbicidal rate of 5% or less (almost no effect))
- J: blackgrass, herbicidal effect grade (blackgrass [6]; [28]): 0 (Herbicidal rate of 5% or less (almost no effect))
- K: Italian ryegrass, herbicidal effect grade (Italian ryegrass [7]; [28]): 4 (Herbicidal rate of 70% or more and less than 90%)
- L: windgrass, herbicidal effect grade (windgrass [8]; [28]): 0 (Herbicidal rate of 5% or less (almost no effect))
- M: velvetleaf, herbicidal effect grade (velvetleaf [9]; [28]): 0 (Herbicidal rate of 5% or less (almost no effect))
- N: redroot pigweed, herbicidal effect grade (redroot pigweed [10]; [28]): 3 (Herbicidal rate of 40% or more and less than 70%)
- O: lambsquarters, herbicidal effect grade (lambsquarters [11]; [28]): 5 (Herbicidal rate of 90% or more (almost completely withered))
- P: chickweed, herbicidal effect grade (chickweed [12]; [28]): 3 (Herbicidal rate of 40% or more and less than 70%)
- R: persian speedwell, herbicidal effect grade (persian speedwell [13]; [28]): 1 (Herbicidal rate of 5% or more and less than 20%)
- herbicidal effect on southern crabgrass (F) (southern crabgrass [14]; [29]): 2 (Herbicidal rate of 20% or more and less than 40%)
- herbicidal effect on green foxtail (G) (green foxtail [15]; [29]): 3 (Herbicidal rate of 40% or more and less than 70%)
- herbicidal effect on barnyard grass (H) (barnyard grass [16]; [29]): 3 (Herbicidal rate of 40% or more and less than 70%)
- herbicidal effect on wild oat (I) (wild oat [17]; [29]): 0 (Herbicidal rate of 5% or less (almost no effect))
- herbicidal effect on blackgrass (J) (blackgrass [18]; [29]): 3 (Herbicidal rate of 40% or more and less than 70%)
- herbicidal effect on Italian ryegrass (K) (Italian ryegrass [19]; [29]): 5 (Herbicidal rate of 90% or more (almost completely withered))
- herbicidal effect on windgrass (L) (windgrass [20]; [29]): 0 (Herbicidal rate of 5% or less (almost no effect))
- herbicidal effect on velvetleaf (M) (velvetleaf [21]; [29]): 3 (Herbicidal rate of 40% or more and less than 70%)
- herbicidal effect on lambsquarters (O) (lambsquarters [22]; [29]): 3 (Herbicidal rate of 40% or more and less than 70%)
- herbicidal effect on false cleavers (Q) (false cleavers; [29]): 4 (Herbicidal rate of 70% or more and less than 90%)
- herbicidal effect on persian speedwell (R) (persian speedwell [23]; [29]): 5 (Herbicidal rate of 90% or more (almost completely withered))
